From US20180228145A1, “ABSORBENT BINDER COMPOSITION” (Kimberly-Clark Worldwide, Inc., priority 2015, published 2018) come the findings set out here.

The subject of the assay is E. coli. Nature of the assay: Kirby-Bauer Zone of Inhibition test (AATCC 147-1998), impregnated test wafers on agar plate. Type of assay: cell-based. The note with it: 50 ml FAB, 1.1 g calcium chloride plus antimicrobial agent; impregnated wafer. The protocol:
A variety of absorbent binder compositions were formulated to contain the FAB superabsorbent polymer material, calcium chloride, and an antimicrobial agent. The absorbent binder composition contained 50 ml FAB and 1.1 g (10 mmole) calcium chloride, and the antimicrobial agent as noted in Table 2 below. The absorbent binder compositions were then analyzed according to the Kirby-Bauer Antibiotic test method which is a Zone of Inhibition test method (This test method is also known by the American Association of Textile Chemists and Colorists (AATCC) as test method 147-1998.). In this example, the antimicrobial agents incorporated into an absorbent binder composition were Benzalkonium chloride, hydrogen peroxide, and a combination of the Benzalkonium chloride and hydrogen peroxide. According to the test method, the absorbent binder compositions were then brought into contact with test wafers to impregnate the test wafers with the absorbent binder compositions. The absorbent binder composition-impregnated test wafers were then brought into contact with various pathogenic bacteria on an agar plate and the agar plates were then left to incubate according to the test method. Following incubation, the distance between the wafers and the growth of bacteria was measured.

`CN[C@H](CC(C)C)C(=O)N[C@H]1C(=O)N[C@@H](CC(N)=O)C(=O)N[C@H]2C(=O)N[C@H]3C(=O)N[C@H](C(=O)N[C@H](C(=O)O)c4cc(O)cc(O)c4-c4cc3ccc4O)[C@H](O)c3ccc(c(Cl)c3)Oc3cc2cc(c3O[C@@H]2O[C@H](CO)[C@@H](O)[C@H](O)[C@H]2O[C@H]2C[C@](C)(N)[C@H](O)[C@H](C)O2)Oc2ccc(cc2Cl)[C@H]1O` [vancomycin wafer, vancomycin]: the “E. coli Zone of Inhibition” value is recorded as 1.9 cm.
